Tests used:
[1] = Clearance of 125I-sCT from the intramuscular or subcutaneous site of injection; type: in vivo, Sprague-Dawley rats; details: free drug, FIG. 2/3
Method: The rate of clearance of sCT from a given liposome furmulation was determined by monitoring the clearance of ^125 I-sCT from the intramuscular site of injection. Salmon calcitonin was spiked with ^1251 -sCT and encapsulated in MLVs as described in Example I in such a way that after the removal of non-liposome associated drug, the injection sample contained about 10,000 cpm of ^125 I per injection.
Male Sprague-Dawley rats weighing 95 to 100 g were lightly anesthetized with ether, and 20 ul or 100 ul of the ^125 I-sCT liposome samples were injected either in the lower part of the forelimbs or the hindlimbs respectively. Sixteen to twenty rats were used in each experiment. […] At each time point, two rats were anesthetized for blood sampling (two ml blood were drawn and counted for ^125 I radioactivity). […] The limbs were inserted into tubes and then counted for remaining radioactivity in a gamma counter. The eight to ten time points shown in FIG. 2 were selected so that the half-life of clearance from the IM site could be determined by a semi-log plot of the radioactivity remaining versus time after injection as shown in FIG. 3. […]
The urine and feces from the two rats kept in metabolic cages throughout the experiment were collected and counted for radioactivity. […]

[2] = Plasma levels of immunoreactive sCT (radio-immunoassay) after IM injection; type: in vivo, rats; details: 1 ug
Method: Rats weighing 95 to 105 gm were injected intramuscularly in the forelimbs with sCT or sCT-MLVs. At each time point, four rats were bled by cardiac puncture and the blood collected in pre-chilled EDTA containing tubes. The plasma was collected after centrifugation at 4° C. and quickly frozen. The frozen samples were sent to Hazleton Laboratories for sCT radio-immunoassay (RIA). […] Thus, sCT-MLVs injected intramuscularly can achieve prolonged delivery to the systemic circulation.

[3] = Apparent first order absorption rate constant of gentamicin from urinary excretion after IM injection; details: lipid dose 0 umol/inj.
Method: The gentamicin concentration in the liposomes formulation was determined by the EMIT assay (Syva, Palo Alto, CA) after lysis in triton X-100.
Therefore, the apparent absorption rate constant, Ka, was estimated with the urinary excretion.
One group of four rats was immediately placed in metabolic cages (one rat per cage) and urine was collected at 24 hour intervals for the duration of the experiment. Cages were rinsed with distilled water after each collection and the volume of the pooled urine and rinses were recorded. An aliquot of each sample was frozen until assay.

Row | clearance half-life from the site of IM injection [1] | plasma immunoreactive sCT in circulation [2] | Compound | Rate Const. Ka (apparent first order absorption rate constant) [3] [h⁻¹]
1 | a few minutes | rapidly disappeared from circulation | CC(C)C[C@H](NC(=O)[C@H](CCCCN)NC(=O)CNC(=O)[C@H](CC(C)C)NC(=O)[C@@H](NC(=O)[C@@H]1CSSC[C@H](N)C(=O)N[C@@H](CO)C(=O)N[C@@H](CC(N)=O)C(=O)N[C@@H](CC(C)C)C(=O)N[C@@H](CO)C(=O)N[C@@H]([C@@H](C)O)C(=O)N1)C(C)C)C(=O)N[C@@H](CO)C(=O)N[C@@H](CCC(N)=O)C(=O)N[C@@H](CCC(=O)O)C(=O)N[C@@H](CC(C)C)C(=O)N[C@@H](Cc1c[nH]cn1)C(=O)N[C@@H](CCCCN)C(=O)N[C@@H](CC(C)C)C(=O)N[C@@H](CCC(N)=O)C(=O)N[C@H](C(=O)N[C@@H](Cc1ccc(O)cc1)C(=O)N1CCC[C@H]1C(=O)N[C@@H](CCCNC(=N)N)C(=O)N[C@H](C(=O)N[C@@H](CC(N)=O)C(=O)N[C@H](C(=O)NCC(=O)N[C@@H](CO)C(=O)NCC(=O)N[C@H](C(=O)N1CCC[C@H]1C(N)=O)[C@@H](C)O)[C@@H](C)O)[C@@H](C)O)[C@@H](C)O [F-sCT, Salmon calcitonin] | –
2 | – | – | gentamicin [Gentamicin solution] | 5.3

— patent US5023087A, “Efficient method for preparation of prolonged release liposome-based drug delivery system” (Liposome Technology, Inc., priority 1989, dated 1991)
